Source: patent publication US20020040018A1, “Subtype selective melatonergics” (priority 2000, published 2002)
Where two headings read alike, the source gives them in different places.

Columns and labels:
[1] = tested on: rat; conditions: cited from earlier work
[2] = tested on: Frings audiogenic seizure susceptible mice; assay: Audiogenic seizure susceptibility of Frings mice; type: in vivo; conditions: for P.I.: Table 6, TD50/ED50
Description: All compounds were administered i.p. Varying doses of the compounds were tested. At the predetermined time of peak anticonvulsant effect, individual mice were placed into a round Plexiglas chamber (diameter, 15 cm; height, 18 cm) pitted with an audio transducer (Model A5-ZC; FET Research & Development, Salt Lake City, Utah) and exposed to a high intensity sound stimulus (110 decibels, 11 KHz) for 25 seconds. Animals not displaying tonic forelimb or hindlimb extension were considered protected. The effect of the test compounds on motor performance was assessed by the rotorod test (Dunham and Miya, 1957). For this procedure, mice were tested for their ability to maintain balance on a rotating (6 rpm) knurled Plexiglas rod (1 inch diameter) for one minute. Mice unable to maintain balance in three successive trials during the test period were considered toxic. The median effective dose (ED50) and the median toxic dose (TD50) was calculated by probit analysis (Finney, 1971). For these studies, the dose of each test substance was varied between the limits of 0 and 100% protection and toxicity. The protective index (PI) is TD50/ED50.

[3] = tested on: Frings audiogenic seizure-susceptible mice; assay: Rotorod test of motor performance (toxicity) in Frings mice; conditions: Table 6, i.p., rotorod
Description: (§1) All compounds were administered i.p. Varying doses of the compounds were tested. […] For this procedure, mice were tested for their ability to maintain balance on a rotating (6 rpm) knurled Plexiglas rod (1 inch diameter) for one minute. Mice unable to maintain balance in three successive trials during the test period were considered toxic. […] For these studies, the dose of each test substance was varied between the limits of 0 and 100% protection and toxicity. The protective index (PI) is TD50/ED50.

[4] = in vivo; conditions: Frings, mouse
Description: as §1

[5] = target: T1, MT2 receptor subtype (Homo sapiens, UniProt P49286); conditions: radioligand binding, clones in NIH-3T3 cells; cited from earlier work
T1 construct: host or cells: NIH-3T3 cells
T1 sequence (P49286 1-362): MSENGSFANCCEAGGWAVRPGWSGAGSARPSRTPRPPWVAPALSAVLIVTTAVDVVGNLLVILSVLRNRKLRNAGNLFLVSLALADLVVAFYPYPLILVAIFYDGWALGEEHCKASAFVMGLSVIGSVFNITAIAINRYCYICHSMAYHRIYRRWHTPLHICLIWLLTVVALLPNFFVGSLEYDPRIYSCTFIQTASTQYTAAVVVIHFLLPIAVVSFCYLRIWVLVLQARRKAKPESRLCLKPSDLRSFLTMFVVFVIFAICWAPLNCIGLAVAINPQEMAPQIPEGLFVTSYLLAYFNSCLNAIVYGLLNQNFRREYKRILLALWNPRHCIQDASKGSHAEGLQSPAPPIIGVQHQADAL

[6] = tested on: mice; assay: Elevated platform test for phencyclidine-like behavioral effects; type: in vivo; conditions: 44.5 nmol dose, control
Description: The in vivo phencyclidine-like behavioral effects of CGX-031-120 is assessed by the elevated platform test as described by Evoniuk et al. (1991). The platform test is a rapid method for evaluating the behavioral effects of phencyclidine-like dissociative anesthetics in mice. […] Alternatively, as a control, a 44.5 nmol dose of MK 801 (dizocilpine) elicited 87.5% drug-induced falls from the elevated platform.

[7] = tested on: children with sleep disturbances; conditions: single dose of 5-10 mg; cited from earlier work
[8] = Sugden's study; cited from earlier work
[9] = Formalin model of persistent pain (Example 11); type: in vivo
Description: In this model, two distinct phases of nociceptive activity (paw licking) are observed. […] The second phase is caused by the release of inflammatory factors from tissue damage caused by formalin injection. This phase lasts for 30 to 40 minutes, and is a model of persistent inflammatory pain. The second phase is also predictive of analgesic drugs that will show efficacy in models of chronic and neurophathic pain. [drawing 2]

[10] = Sugden's study; cited from earlier work; remark: listed apart in the source
[11] = tested on: rodents; conditions: 25 μg chronically for 13 weeks; cited from earlier work
[12] = Table 6, i.p., time of peak effect
[13] = Mus musculus, ip, Table 6, i.p., time of peak effect, read-out: ED50

CC(=O)NCCc1c(Cc2ccccc2)[nH]c2ccccc12 [Luzindole]
antagonism of melatonin induced anti-nociception ([1]; i.c.v. (Luzindole 50 & 100 μg)): antagonized

NC(=O)N1c2ccccc2C=Cc2ccccc21 [Tegratol ®, reference compound]
P.I. [2]: 4.1
ED50 [2, 12]: 11.2 mg/kg
TD50 [3]: 45.4 mg/kg

O=C1CN=C(c2ccccc2Cl)c2cc([N+](=O)[O-])ccc2N1 [Klonipin ®, reference compound]
P.I. [2]: 2.6
ED50 [2, 12]: 0.10 mg/kg
TD50 [3]: 0.26 mg/kg

O=C1NC(=O)C(c2ccccc2)(c2ccccc2)N1 [Dilantin ®, reference compound]
TD50 ([4]; ip): 41 mg/kg
ED50 [2, 13]: 3.9 mg/kg
P.I. [2]: 10.5

CCCC(=O)NCCc1c2n(c3ccc(OC)cc13)Cc1ccccc1-2 [IIK7, N-butanoyl-2-(2-methoxy-6H-isoindolo-[2,1a]-indol-11-yl)-ethanamine]
selectivity for the MT2 receptor subtype [5]: 140 fold

C[C@]12N[C@H](Cc3ccccc31)c1ccccc12 [MK 801, reference compound]
drug-induced falls from the elevated platform [6]: 87.5%

COc1ccc2[nH]cc(CCNC(C)=O)c2c1 [Melatonin, N-acetyl-5-methoxytryptamine]
frequency of epileptic attacks [7]: positive effect
TD50 ([4]; intraperitoneal): 363 mg/kg
TD50 ([4]; ip): 342 mg/kg
ED50 ([2]; Mus musculus, ip): 82 mg/kg
ED50 ([2]; audiogenic mouse model, read-out: ED50): 83 mg/kg
anti-nociceptive effect ([1]; ip 30, 60, 120 mg/kg): dose-dependent anti-nociceptive effect
ED50 v ECS [8]: 159 mg/kg
licking time following formalin injection ([9]; both phases, 5 doses): dose-dependently reduced the licking time
dose at which reduction of licking time reaches significance ([9]; phase one): ≥ 100 mg/kg
dose at which reduction of licking time reaches significance ([9]; phase two): ≥ 200 mg/kg
ED50 v 3-MPA [10]: 115 mg/kg
number and severity of seizures induced by PTZ [11]: reduced the number and severity of seizures

NC(=O)OCC(COC(N)=O)c1ccccc1 [Felbatol ®, reference compound]
TD50 ([4]; ip): 220 mg/kg
ED50 [2, 13]: 10 mg/kg
P.I. [2]: 22

CCC1(C)CC(=O)NC1=O (stereo not shown) [Zarontin ®, reference compound]
TD50 ([4]; ip): 340 mg/kg
P.I. [2]: 1.04

CCCC(CCC)C(=O)O [Depakote ®, reference compound]
ED50 [2, 13]: 155 mg/kg
P.I. [2]: 2.6
